Laboratory results reported in patent US9371296B2, “Bicyclic 1,3,4-oxadiazole derivatives as sphingosine-1-phosphate receptors' modulators” (Allergan, Inc., priority 2014, dated 2016).

Target: T1, human S1P1 receptor (Homo sapiens, UniProt P21453)
T1 construct: expressed in transfected cells; membranes used
Experiment: GTP γ35S binding assay for S1P1 activity
Assay type: biochemical
Details: 5 microgram membrane protein, test compounds 0.08 to 5,000 nM, 30 min at 25° C.
Procedure: Compounds were synthesized and tested for S1P1 activity using the GTP γ^35S binding assay. These compounds may be assessed for their ability to activate or block activation of the human S1P1 receptor in cells stably expressing the S1P1 receptor.
GTP γ^35S binding was measured in medium containing (mM) HEPES 25, pH 7.4, MgCl2 10, NaCl 100, dithiothreitol 0.5, digitonin 0.003%, 0.2 nM GTP γ^35S, and 5 microgram membrane protein in a volume of 150 microliters. Test compounds were included in the concentration range from 0.08 to 5,000 nM unless indicated otherwise. Membranes were incubated with 100 μM 5′-adenylylimmidodiphosphate for 30 min, and subsequently with 10 micromolar GDP for 10 min on ice. Drug solutions and membrane were mixed, and then reactions were initiated by adding GTP γ^35S and continued for 30 min at 25° C. Reaction mixtures were filtered over Whatman GF/B filters under vacuum, and washed three times with 3 mL of ice-cold buffer (HEPES 25, pH7.4, MgCl2 10 and NaCl 100). Filters were dried and mixed with scintillant, and counted for ^35S activity using a β-counter. Agonist-induced GTP γ^35S binding was obtained by subtracting that in the absence of agonist. Binding data were analyzed using a non-linear regression method. In case of antagonist assay, the reaction mixture contained 10 nM […] in the presence of test antagonist at concentrations ranging from 0.08 to 5000 nM.

T1 sequence (P21453 whole entry): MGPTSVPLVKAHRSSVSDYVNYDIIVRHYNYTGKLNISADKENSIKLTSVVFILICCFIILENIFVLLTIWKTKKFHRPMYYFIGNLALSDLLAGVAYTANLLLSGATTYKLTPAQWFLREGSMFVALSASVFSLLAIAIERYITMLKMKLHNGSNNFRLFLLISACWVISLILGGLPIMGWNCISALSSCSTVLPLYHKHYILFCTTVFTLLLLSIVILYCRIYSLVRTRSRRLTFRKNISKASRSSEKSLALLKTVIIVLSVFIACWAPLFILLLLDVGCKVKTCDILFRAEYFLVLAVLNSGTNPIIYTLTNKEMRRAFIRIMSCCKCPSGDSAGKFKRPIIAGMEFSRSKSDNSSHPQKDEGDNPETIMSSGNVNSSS

EC50 [µM] | Molecule
0.00026 | CCCC(Cc1nnc(-c2ccc(CNCCCP(=O)(O)O)c3ncccc23)o1)c1ccccc1 (stereo not drawn) [Compound 11, {3-[({5-[5-(2-phenylpentyl)-1,3,4-oxadiazol-2-yl]quinolin-8-yl}methyl)amino]propyl}phosphonic acid]
0.085 | CCCC/C(=C\c1nnc(-c2ccc(CNCCC(=O)O)c3ccccc23)o1)c1ccccc1 [Compound 4, 3-{[(4-{5-[(1E)-2-phenylhex-1-en-1-yl]-1,3,4-oxadiazol-2-yl}naphthalen-1-yl)methyl]amino}propanoic acid]
0.417 | CCCCCC(Cc1nnc(-c2ccc(CNCCC(=O)O)c3ncccc23)o1)c1ccccc1 (stereo not drawn) [Compound 20, 3-[({5-[5-(2-phenylheptyl)-1,3,4-oxadiazol-2-yl]quinolin-8-yl}methyl)amino]propanoic acid]
0.00252 | CCCC/C(=C\c1nnc(-c2ccc(CNCCCP(=O)(O)O)c3ccccc23)o1)c1ccccc1 [Compound 3, (3-{[(4-{5-[(1E)-2-phenylhex-1-en-1-yl]-1,3,4-oxadiazol-2-yl}naphthalen-1-yl)methyl]amino}propyl) phosphonic acid]
0.461 | CCCC(Cc1nnc(-c2ccc(CN3CC(C(=O)O)C3)c3ncccc23)o1)c1ccccc1 (stereo not drawn) [Compound 18, 1-({5-[5-(2-phenylpentyl)-1,3,4-oxadiazol-2-yl]quinolin-8-yl}methyl)azetidine-3-carboxylic acid]
0.163 | (E)-1-((5-(5-(2-phenylpent-1-en-1-yI)-1,3,4-oxadiazol-2-yl)quinolin-8-yl)methyl)azetidine-3-carboxylic acid [Compound 15]
0.15 | CCC/C(=C\c1nnc(-c2ccc(CNCCC(=O)O)c3ncccc23)o1)c1ccccc1 [Compound 6, 3-{[(5-{5-[(1E)-2-phenylpent-1-en-1-yl]-1,3,4-oxadiazol-2-yl}quinolin-8-yl)methyl]amino}propanoic acid]
0.0005 | CCCC/C(=C\c1nnc(-c2ccc(CNCCCP(=O)(O)O)c3ncccc23)o1)c1ccccc1 [Compound 7, (3-{[(5-{5-[(1E)-2-phenylhex-1-en-1-yl]-1,3,4-oxadiazol-2-yl}quinolin-8-yl)methyl]amino}propyl) phosphonic acid]
0.029 | CCCC/C(=C\c1nnc(-c2ccc(CN3CC(C(=O)O)C3)c3ncccc23)o1)c1ccccc1 [Compound 16, 1-[(5-{5-[(1E)-2-phenylhex-1-en-1-yl]-1,3,4-oxadiazol-2-yl}quinolin-8-yl)methyl]azetidine-3-carboxylic acid]
0.014 | CCCCCC(Cc1nnc(-c2ccc(CNCCCP(=O)(O)O)c3ccccc23)o1)c1ccccc1 (stereo not drawn) [Compound 9, {3-[({4-[5-(2-phenylheptyl)-1,3,4-oxadiazol-2-yl]naphthalen-1-yl}methyl)amino]propyl}phosphonic acid]
0.156 | CCCC/C(=C\c1nnc(-c2ccc(CN3CC(C(=O)O)C3)c3ccccc23)o1)c1ccccc1 [Compound 14, 1-[(4-{5-[(1E)-2-phenylhex-1-en-1-yl]-1,3,4-oxadiazol-2-yl}naphthalen-1-yl)methyl]azetidine-3-carboxylic acid]
0.34 | CCCC(Cc1nnc(-c2ccc(CNCCC(=O)O)c3ncccc23)o1)c1ccccc1 (stereo not drawn) [Compound 12, 3-[({5-[5-(2-phenylpentyl)-1,3,4-oxadiazol-2-yl]quinolin-8-yl}methyl)amino]propanoic acid]
0.00105 | CCCCC(Cc1nnc(-c2ccc(CNCCCP(=O)(O)O)c3ncccc23)o1)c1ccccc1 (stereo not drawn) [Compound 21, {3-[({5-[5-(2-phenylhexyl)-1,3,4-oxadiazol-2-yl]quinolin-8-yl}methyl)amino]propyl}phosphonic acid]
0.607 | CCC/C(=C\c1nnc(-c2ccc(CN3CC(C(=O)O)C3)c3ccccc23)o1)c1ccccc1 [Compound 13, 1-[(4-{5-[(1E)-2-phenylpent-1-en-1-yl]-1,3,4-oxadiazol-2-yl}naphthalen-1-yl)methyl]azetidine-3-carboxylic acid]
0.00287 | CCCCCC(Cc1nnc(-c2ccc(CNCCCP(=O)(O)O)c3ncccc23)o1)c1ccccc1 (stereo not drawn) [Compound 22, {3-[({5-[5-(2-phenylheptyl)-1,3,4-oxadiazol-2-yl]quinolin-8-yl}methyl)amino]propyl}phosphonic acid]
0.257 | CCCCC(Cc1nnc(-c2ccc(CNCCC(=O)O)c3ncccc23)o1)c1ccccc1 (stereo not drawn) [Compound 19, 3-[({5-[5-(2-phenylhexyl)-1,3,4-oxadiazol-2-yl]quinolin-8-yl}methyl)amino]propanoic acid]
0.00061 | CCC/C(=C\c1nnc(-c2ccc(CNCCCP(=O)(O)O)c3ncccc23)o1)c1ccccc1 [Compound 5, (3-{[(5-{5-[(1E)-2-phenylpent-1-en-1-yl]-1,3,4-oxadiazol-2-yl}quinolin-8-yl)methyl]amino}propyl) phosphonic acid]
0.376 | CCCCC(Cc1nnc(-c2ccc(CN3CC(C(=O)O)C3)c3ncccc23)o1)c1ccccc1 (stereo not drawn) [Compound 23, 1-({5-[5-(2-phenylhexyl)-1,3,4-oxadiazol-2-yl]quinolin-8-yl}methyl)azetidine-3-carboxylic acid]
0.942 | CCCCCC(Cc1nnc(-c2ccc(CN3CC(C(=O)O)C3)c3ccccc23)o1)c1ccccc1 (stereo not drawn) [Compound 17, 1-({4-[5-(2-phenylheptyl)-1,3,4-oxadiazol-2-yl]naphthalen-1-yl}methyl)azetidine-3-carboxylic acid]
1.09 | CCCCCC(Cc1nnc(-c2ccc(CN3CC(C(=O)O)C3)c3ncccc23)o1)c1ccccc1 (stereo not drawn) [Compound 24, 1-({5-[5-(2-phenylheptyl)-1,3,4-oxadiazol-2-yl]quinolin-8-yl}methyl)azetidine-3-carboxylic acid]
0.32 | CCCCCC(Cc1nnc(-c2ccc(CNCCC(=O)O)c3ccccc23)o1)c1ccccc1 (stereo not drawn) [Compound 10, 3-[({4-[5-(2-phenylheptyl)-1,3,4-oxadiazol-2-yl]naphthalen-1-yl}methyl)amino]propanoic acid]
0.027 | CCC/C(=C\c1nnc(-c2ccc(CNCCCP(=O)(O)O)c3ccccc23)o1)c1ccccc1 [Compound 1, (3-{[(4-{5-[(1E)-2-phenylpent-1-en-1-yl]-1,3,4-oxadiazol-2-yl}naphthalen-1-yl)methyl]amino}propyl)phosphonic acid]
0.571 | CCC/C(=C\c1nnc(-c2ccc(CNCCC(=O)O)c3ccccc23)o1)c1ccccc1 [Compound 2, 3-{[(4-{5-[(1E)-2-phenylpent-1-en-1-yl]-1,3,4-oxadiazol-2-yl}naphthalen-1-yl)methyl]amino}propanoic acid]
0.033 | CCCC/C(=C\c1nnc(-c2ccc(CNCCC(=O)O)c3ncccc23)o1)c1ccccc1 [Compound 8, 3-{[(5-{5-[(1E)-2-phenylhex-1-en-1-yl]-1,3,4-oxadiazol-2-yl}quinolin-8-yl)methyl]amino}propanoic acid]
